One series deals with C2C12 cells. The experiment in a line: relative gene expression of REV-ERB responsive genes by qPCR. The note with it: C2C12, 5uM; single replicates; listed as SR1267. Type of series: cell-based, mouse. The text has this: We next determined whether STL1267 can regulate characterized REV-ERB modulated genes in cell lines expressing REV-ERB naturally. Five micromolar doses of both drugs were used in cell-based experiments from this point on. REV-ERB is an established component of the core molecular clock repressing the expression of core clock gene Bmal1[6],[27] as well as others[28],[29]. […] In skeletal muscle, REV-ERB agonism increases the expression of a wide variety of genes important in mitochondrial function.
The human hepatocellular carcinoma cell line, HepG2 cells (ATCC HB-8065), were cultured in 10% FBS 1% L-Glu MEM at 37 °C in a humidified atmosphere of 5% CO2. Prior to RNA extraction cells were treated with either DMSO or REV-ERB agonist for 24 h. The C2C12 proliferating mouse myoblast cells (ATCC, CRL-1772) were cultured in 10% FBS DMEM at 37 °C in a humidified atmosphere of 5% CO2. Prior to RNA extraction cells were treated with either DMSO or REV-ERB agonist for 24 h. Prior to crystal violet cytotoxicity assay, cells were treated with either DMSO or REV-ERB agonist for 48 h.
Mouse tissue was homogenized using a bullet blender. DNA/protein was removed by phase separation using BCP/chloroform. The supernatant (RNA containing fraction) was collected, and RNA was precipitated using isopropanol. The RNA pellets were washed with 75% ethanol and resolubilized in RNAse free water. The purity of the RNA was tested by agarose gel prior to cDNA synthesis. Total RNA was harvested from HepG2 and C2C12 using the RNeasy mini kit according to manufacturer’s instructions (Qiagen).
Isolated RNA was reverse transcribed into cDNA using the qScript^TMcDNA Synthesis kit according to the manufacturer’s instructions (QuantaBio). Quantative PCR (qPCR) was performed on a QuantStudio^TM 6 Flex or QuantStudio^TM 7 Flex (Life Technologies) using SYBR^TM Select Master Mix (Applied BioSystems) with select primers (Table S2). Gene expression was normalized to Ppia for all data sets. Oligonucleotide sequences are provided in Supplementary Table 2.

A short description of series [1]: tissue exposure following i.p. administration. Type of series: in vivo, C57Bl/6 J mice. The note with it: mice. The method, then: To test the efficacy of STL1267 in vivo, we began by assessing tissue exposure following i.p. administration. We administered vehicle or 50 mg/kg of STL1267 via intraperitoneal injection to C57Bl/6 J mice. The mice were sacrificed at four subsequent time points over the next 12 h.
All in vivo studies were performed using the ARRIVE guidelines and approved by the Washington University IACUC. C57Bl/6J mice (male; 6–8 weeks of age) maintained at 12:12 h light;dark, 22 °C, 40–60% humidity. Mice were injected IP with 50 mg/kg STL1267 (n = 3–4 per group) or vehicle (10% DMSO, 12% TWEEN80, PBS) (n = 3–4 per group). Mice were weighed immediately following the injection and were weighed again immediately after sacrifice. Mice were fasted started at the time of injection. For tissue collection, three STL1267-injected mice were sacrificed at 1 h post-injection, and three more were sacrificed at 3 h post-injection. At 8 h and 12 h post-injection, six mice from each treatment group were taken down and tissue was collected. The tissues collected at all four time points include plasma, white adipose tissue, brain, liver, and skeletal muscle (quadriceps). […] Analytes were extracted using protein precipitation techniques with acetonitrile and samples were then analyzed using a SCIEX Triple Quad 5500+ system – QTRAP ready linked to an ExionLC AD-HPLC system. […]

The target of a further series is GR (Homo sapiens, UniProt P04150). As to the kind of experiment: Gal4-UAS reporter assay for nuclear receptor specificity. Type of series: cell-based. The note with it: Gal4 DBD-NR, HEK293 cells, 10 µM. The text has this:
We assessed the specificity of STL1267 using both in house nuclear receptor Gal4-NR reporter assays and the NIMH Psychoactive Drug Screening Program (PDSP) assays. We assessed the specificity of STL1267 in the PDSP’s radioligand displacement assays, screening for binding to off-target GPCRs, ion channels, transporters, and other drug targets (Table S1). Of the 43 targets assessed in this panel, we observed no detectable binding in 41 of them. […] Additional assessment in serotonin transporter and kappa opioid receptor activity in a functional assay may be warranted to determine absolute specificity.
Receptor RLBA Ki Receptor activity […]
HEK293 cells transfected with Gal4-UAS l uc i f eras e and […]

Several values for one entry are separate records, joined by “and”; a condition that tells them apart may be missing. Equal values may be shown once.

Chain of GR (P04150 524-777 limits assumed): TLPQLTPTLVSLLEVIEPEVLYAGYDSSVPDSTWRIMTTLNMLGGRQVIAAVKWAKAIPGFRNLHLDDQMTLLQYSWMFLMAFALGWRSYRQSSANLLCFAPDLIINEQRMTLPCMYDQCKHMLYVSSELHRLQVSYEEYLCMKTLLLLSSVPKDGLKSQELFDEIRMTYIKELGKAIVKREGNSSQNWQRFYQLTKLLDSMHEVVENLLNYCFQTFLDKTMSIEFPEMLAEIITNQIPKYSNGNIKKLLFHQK

For the compound `Clc1nnc2ccc(Oc3ccccc3-c3ccccc3)nn12` [STL1267], in the series on C2C12 cells, the “Ppargca1 relative gene expression” value was 8.425 and 7.081 and 5.71; the “lcad relative gene expression” value was 25.4657 and 24.2235 and 14.2579; the “lkb1 relative gene expression” value is 4.349 and 3.556 and 2.4615; the “mt-Nd1 relative gene expression” value was 3.873 and 3.557 and 4.501. In the series with C2C12 cells, the “mt-co1 relative gene expression” value is 7.748 and 5.296 and 5.742; the “nampt relative gene expression” value was 4.112 and 2.537 and 1.9657; the “scad relative gene expression” value was 25.4657 and 24.2235 and 14.2579; the “sirt1 relative gene expression” value was 4.33 and 3.474 and 1.956. Besides, the “vlcad relative gene expression” value with C2C12 cells is 14.2905 and 16.1127 and 7.599. The compound also had a half-life in series [1] (male, C57Bl/6J, mouse, plasma, ip, 50 mg/kg intraperitoneal injection) of roughly 1.6 h. For the same compound, the “tissue distribution (brain, plasma, liver, skeletal muscle, white adipose tissue)” value in series [1] (50 mg/kg i.p.) is on record as “localized in all the tissues collected”. Further, the activity result at GR is given as “did not detect activity”.

The values above are taken from PMC9681850, “Structural basis of synthetic agonist activation of the nuclear receptor REV-ERB” (Nature Communications, 2022).
